Experimental data: PubChem BioAssay AID179 (DTP/NCI, 2004)
Active and inactive are the calls of the source.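 The calls were made as follows: active = compounds giving half or more protection of infected cells from virus-caused growth loss, again on retest; inactive = the rest.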

Tested on: CEM cells HIV-1 protection, formazan growth assay
Test: NCI AIDS Antiviral Assay
Conditions: for IC50: measured here: growth of uninfected CEM cells
Method in brief: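 Human CEM cells, uninfected and HIV-1-infected, exposed to five drug concentrations; growth measured by soluble formazan assay and scored as percent protection from infection, with protecting compounds retested.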

Structure (SMILES) | EC50 [µM] | IC50 [µM] | outcome
CCOC(=O)/C=C/c1cccc(C#N)c1 | > 178 | 87.1 | 
CN1C(=O)c2ccccc2C(O)(c2ccccc2)C1(O)c1ccccc1 (stereo not given) | > 200 | 64.6 | 
CN(C)CC(C)(C)C(/C=C/c1ccccc1)=N\Nc1ccccc1 |  |  | inactive
CC/C(=N/O)c1ccc2[nH]c3c(C)cc([N+](=O)[O-])c(C)c3c2c1 | > 12 | 7.41 | 
CC(C)C(=O)OCC1CCCN2CCCCC12 (stereo not given) | > 200 | > 100 | 
CCSc1nc2cccc([N+](=O)[O-])c2n1CC |  |  | inactive
CCOc1ccc(NC(=O)C(=O)C2C(=O)Nc3ccccc3S2=O)cc1 (stereo not given) | > 50.1 | > 50.1 | 
O=S(=O)([O-])c1ccc(C=Nc2ccccc2)c([O-])c1.O=S(=O)([O-])c1ccc(C=Nc2ccccc2)c([O-])c1.[Co+2] | > 407 | 95.5 | 
O=C(CCc1n[nH]c(=S)o1)Nc1ccccc1C(F)(F)F | > 295 | 229 | 
CN(C)CCOc1ccc(-c2c(Oc3ccc(Cl)cc3)c(=O)oc3ccccc23)cc1 | > 200 | 8.13 | 
CCOC(=O)Cc1nc2sc(C)c(-c3ccccc3)c2c(=O)[nH]1 | > 110 | > 110 | 
N#Cc1cc([N+](=O)[O-])ccc1NC(=O)C(=O)Nn1c(=S)[nH]c2ccccc2c1=O |  |  | inactive
Cc1cc(N=Nc2c(C)ccc3ncccc23)ccc1N | > 200 | 0.603 | 
O=C1C=C[C@@]23CC1C(O)C[C@H]2C=Cc1ccccc13 (stereo not given in full) | > 102 | > 102 | 
COc1ccccc1Cc1nc(-c2ccccc2)nn(C2OC(COC(C)=O)C(OC(C)=O)C(OC(C)=O)C2OC(C)=O)c1=S (stereo not given) |  |  | inactive
CCOC(=O)C1=C(Nc2ccc(Cl)c(Cl)c2)OC/C1=N\NC(=O)Cc1ccccc1 | > 100 | > 100 | 
N#Cc1cc2c(n(NS(=O)(=O)c3ccccc3)c1=O)CCCC2 | > 200 | > 200 | 
c1cc(-c2ncc3ccncc3n2)ccn1 | > 64.6 | > 64.6 | 
CCCCc1ccc(Nc2nc3c(ncn3C3CC(O)C(CN=[N+]=[N-])O3)c(=O)[nH]2)cc1 (stereo not given) | > 200 | > 200 | 
C1SSCC2=C1CSSC2 | > 13.2 | > 13.2 | 
c1ccc(-c2c(-c3ccccc3)c2=NN(c2ccccc2)c2ccccc2)cc1 | > 200 | 11 | 

Structure (SMILES) | EC50 [µM] | IC50 [µM] | outcome
Cc1cn(C2C=CC(CO)O2)c(=O)[nH]c1=O (stereo not given) | 1.62 | 186 | 
COC(=O)NC1C(C)OC(OC2C/C=C(/C)C3C=CC4C(OC5CC(OC6CC(O)C(OC7CC(O)C(OC)C(C)O7)C(C)O6)C(O)C(C)O5)C(C)CC(C)C4C3(C)/C(O)=C3\C(=O)OC4(CC(C)C(CO)=CC4/C=C\2C)C3=O)CC1(C)[N+](=O)[O-] (stereo not given) | > 209 | 4.79 | 
Fc1sc2c(c1F)C1CCC2C1 (stereo not given) | > 200 | 115 | 
O=C1N[C@H]2c3c(Cl)sc(Cl)c3[C@@H](O)[C@H]2O1 | > 200 | > 200 | 
Cc1coc2c1C1OC(=O)C3(C/C=C\C(C)C2)OC13 (stereo not given) | > 72.4 | > 72.4 | 
O=C(Cn1c(=O)oc2ccccc21)N(c1ccccc1)c1ccccc1 | > 200 | > 200 | 
COc1cc2c(cc1OC)-c1cc3ccc(OC)c(OC)c3c[n+]1CC2 | > 324 | 145 | 
CCOP(=O)(OCC)/C(=C/NC(=S)c1ccncc1)C(=O)OC | 126 | 186 | 
COc1ccc(CCN2CCOCC2)cc1 | > 200 | > 200 | 
O=C1NC2Cc3ccccc3C(C2)O1 (stereo not given) | > 200 | > 200 | 
c1ccc(C2C3=C(CCCC3)Nc3nc4cc5ccccc5cc4n32)cc1 (stereo not given) | > 200 | > 200 | 
C=C(CN(C)C)C(=O)c1ccc(OC)cc1 |  |  | inactive
O=C(OCC1CCCN2CCCCC12)c1ccncc1 (stereo not given) | 19.1 | > 200 | 
OC1CCCC2CCC[N-]C12.OC1CCCC2CCC[N-]C12.[Mn+2] (stereo not given) |  |  | inactive
O=C1c2cc(Cl)ccc2-n2c(noc2=O)C2CSCN12 (stereo not given) | > 200 | > 200 | 
COC(=O)C1Cc2c(n(Cc3ccccc3)c3ccccc23)C(CCC(=O)O)N1C(C)C (stereo not given) |  |  | inactive
CCOC(=O)C(Oc1ccc(OC)c2c1C(=O)CCC2)c1ccccc1 (stereo not given) |  |  | inactive
C=CCOC1OC(CS(=O)(=O)O)C(O)C(O)C1O (stereo not given) |  |  | inactive
C=C(C)[C@]12CC(C)C34OC(/C=C\C=C\CCCCCCCCC)(O[C@@H]1[C@@H]3[C@@H]1O[C@]1(CO)[C@@H](O)[C@]1(O)C(=O)C(C)=C[C@@H]41)O2 (stereo not given in full) | > 0.2 | 0.00389 | 
CCOC(=O)c1sc(N/N=C2\NC(=O)/C(=C/c3ccc([N+](=O)[O-])cc3)S2)nc1C | > 200 | 135 | 
Cc1c(C(=O)CC(=O)C(=O)Nc2ccccc2C(F)(F)F)[n+](=O)c2ccccc2n1[O-] | > 4.57 | > 4.57 | 
